These results are taken from patent publication US20050020542A1, “Method of modulating sodium ion absorption in epithelial cells” (priority 2001, published 2005).

The target in this assay is T1, epithelial sodium channel (ENaC) (Homo sapiens, UniProt P37088+P51168+P51170).
T1 construct: Nasal Polyps were surgically obtained from a CF patient; endogenous in cells; host or cells: primary cystic fibrosis human nasal epithelial (CFHNE) cells from nasal polyps of a CF patient, grown at air-liquid interface
T1 sequence (P37088 1-669): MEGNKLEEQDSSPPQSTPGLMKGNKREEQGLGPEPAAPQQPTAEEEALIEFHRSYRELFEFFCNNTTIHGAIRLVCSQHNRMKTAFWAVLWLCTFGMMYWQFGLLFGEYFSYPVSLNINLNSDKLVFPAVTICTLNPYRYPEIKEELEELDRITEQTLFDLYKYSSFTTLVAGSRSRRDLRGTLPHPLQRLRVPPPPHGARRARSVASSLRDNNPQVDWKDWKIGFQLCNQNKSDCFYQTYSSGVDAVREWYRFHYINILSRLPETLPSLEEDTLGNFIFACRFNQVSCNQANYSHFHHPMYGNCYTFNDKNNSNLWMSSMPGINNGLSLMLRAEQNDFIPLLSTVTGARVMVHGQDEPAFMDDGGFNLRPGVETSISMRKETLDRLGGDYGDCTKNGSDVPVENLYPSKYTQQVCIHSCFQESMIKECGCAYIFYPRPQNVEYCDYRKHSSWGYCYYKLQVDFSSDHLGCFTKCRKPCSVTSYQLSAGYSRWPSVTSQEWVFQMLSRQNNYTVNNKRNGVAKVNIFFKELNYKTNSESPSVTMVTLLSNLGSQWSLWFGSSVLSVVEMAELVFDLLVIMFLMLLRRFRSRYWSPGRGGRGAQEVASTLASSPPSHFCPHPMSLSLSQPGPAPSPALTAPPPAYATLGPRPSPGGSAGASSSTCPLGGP
T1 sequence (P51168 1-640): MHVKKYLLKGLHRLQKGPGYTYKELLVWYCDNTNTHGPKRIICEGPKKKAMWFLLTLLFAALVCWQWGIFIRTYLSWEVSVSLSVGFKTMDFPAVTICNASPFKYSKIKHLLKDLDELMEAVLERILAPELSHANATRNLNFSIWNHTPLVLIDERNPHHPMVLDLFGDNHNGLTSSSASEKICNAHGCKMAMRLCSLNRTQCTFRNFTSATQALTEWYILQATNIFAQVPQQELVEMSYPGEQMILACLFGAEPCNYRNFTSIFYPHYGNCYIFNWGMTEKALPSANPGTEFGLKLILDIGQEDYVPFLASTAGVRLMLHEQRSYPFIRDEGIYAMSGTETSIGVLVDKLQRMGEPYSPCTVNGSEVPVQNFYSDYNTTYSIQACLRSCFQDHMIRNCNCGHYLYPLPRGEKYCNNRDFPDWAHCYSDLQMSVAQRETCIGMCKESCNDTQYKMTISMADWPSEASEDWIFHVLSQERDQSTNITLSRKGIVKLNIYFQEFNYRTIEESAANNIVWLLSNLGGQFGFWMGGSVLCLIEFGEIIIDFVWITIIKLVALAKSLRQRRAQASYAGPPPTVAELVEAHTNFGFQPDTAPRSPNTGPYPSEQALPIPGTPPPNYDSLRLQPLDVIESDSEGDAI
T1 sequence (P51170 1-649): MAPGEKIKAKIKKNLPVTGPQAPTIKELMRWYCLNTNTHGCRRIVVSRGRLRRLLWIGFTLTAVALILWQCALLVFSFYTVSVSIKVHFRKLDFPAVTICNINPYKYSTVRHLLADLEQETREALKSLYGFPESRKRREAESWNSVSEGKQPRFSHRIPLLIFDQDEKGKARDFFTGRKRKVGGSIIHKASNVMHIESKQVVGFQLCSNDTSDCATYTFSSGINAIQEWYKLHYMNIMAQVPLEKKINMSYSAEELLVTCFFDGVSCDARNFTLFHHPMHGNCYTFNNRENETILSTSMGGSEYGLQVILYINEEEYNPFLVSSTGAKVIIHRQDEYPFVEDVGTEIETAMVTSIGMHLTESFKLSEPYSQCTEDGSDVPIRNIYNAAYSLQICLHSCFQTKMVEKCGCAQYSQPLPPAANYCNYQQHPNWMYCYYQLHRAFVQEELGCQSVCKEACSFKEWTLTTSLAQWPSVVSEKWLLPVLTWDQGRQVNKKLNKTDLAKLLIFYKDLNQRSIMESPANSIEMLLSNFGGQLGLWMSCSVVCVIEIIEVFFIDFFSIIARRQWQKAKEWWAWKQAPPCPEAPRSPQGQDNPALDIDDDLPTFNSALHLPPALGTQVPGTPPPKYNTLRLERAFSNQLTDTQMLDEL
Kind of assay: Cystic fibrosis human nasal epithelial (CFHNE) cell Ussing chamber assay, short-circuit current (Isc). It counts as cell-based. As for the experimental part:
Sodium uptake inhibiting and enhancing inositol polyphosphate compounds are determined by the cystic fibrosis human nasal epithelial (CFHNE) cell assay, as described in detail in Examples 1 and 2, i.e., by mounting monolayers of human CF nasal epithelial cells in Ussing chambers, and then monitoring short-circuit current (Isc) and resistance after contact with a test inositol polyphosphate compound.
Elevated basal Isc measured in monolayer cultures in Ussing Chambers is a prominent characteristic of cultures of CF human nasal airway epithelia that distinguishes it from normal tissue. Although basal Isc is largely driven by sodium channel activity (ENaC) it has been closely associated with both CFTR and Ca^2+ activated Cl^− channels. (Devor and Pilewski, 1999; Inglis et al., 1999; Mall et al., 1999; Ramminger et al., 1999; Wang and Chan, 2000).
CF Human Nasal Epithelial (CFHNE) Cell Isolation and Proliferation: Nasal Polyps were surgically obtained from a CF patient at Children's Hospital (Seattle, Wash.), transported, on ice in a sterile container containing a 1:1 mixture of Dulbecco's modification of minimum essential medium Eagle and Ham's F-12 nutrient medium (DMEM/F-12)(Irvine Scientific, Santa Ana, Calif.) supplemented with 100 U/ml penicillin, 0.1 mg/ml streptomycin, 10 mM HEPES, and 2 mM L-glutamine. The tissue samples were aseptically removed from the transport medium and washed (repeated 5×) by suspending in 40 ml of Joklik's modification of minimum essential medium Eagle (JMEM) at 4° C., and centrifuging at 500 RPM. The supernatant was aspirated and discarded. The tissue was then transferred to JMEM containing 200 U/ml penicillin, 0.2 mg/ml streptomycin, 0.1 mg/ml gentamycin sulfate (Clonetics, San Diego, Calif.), and 0.1 μg/ml amphotericin-B (Clonetics), and 0.1% Protease (Sigma), washed an additional 2×, suspended in 15 ml in a 10 cm tissue culture dish, and incubated at 4° C. for 24 hours. The tissue samples were then gently triturated, the connective tissue aseptically removed, and the remaining cell suspension centrifuged at 1000 RPM for 5 min. The supernatant was aspirated and the pellet was resuspended in 10 ml JMEM with 0.025% trypsin-EDTA and allowed to incubate for 5 min. After 5 min., 10% Fetal Bovine Serum (FBS) was added to deactivate the trypsin, and the cell suspension was centrifuged at 1000 RPM. The supernatant was aspirated and the cell pellet was resuspended in a proliferation media consisting of Keratinocyte-Serurm Free Medium (KSFM)(Gibco-BRL, Grand Island, N.Y.) containing 5 ng/ml EGF (Gibco), 50 μg/ml BPE (Gibco), 100 U/ml penicillin, 0.1 mg/ml streptomycin, and 2 mM L-glutamine. The cell suspension was transferred to 2, 10 cm tissue culture dishes coated with 1 μg/cm^2 Vitrogen (Becton-Dickinson, Bedford, Mass.), incubated at 37° C. in a humidified atmosphere of 5% CO2 and 95% air. The cells were allowed to grow for 6 days (70-80% confluence) with the media being replaced with fresh media every other day. The cells were then trypsinized using 0.025% trypsin-EDTA for 5 min. The cell suspension was collected, the trypsin deactivated with 10% FBS, and centrifuged at 1000 rpm for 5 min. The cells were then counted using a hemocytometer. There was a typical yield of 3×10^6 cells per dish. The supernatant was aspirated and the cells were resuspended in KSFM and plated on 1 μg/cm^2 Vitrogen at a density of 5×10^3 cells/cm^2.
CFHNE Cell Ussing Chamber Preparation: The CFHNE cells were prepared for Ussing Chamber studies using Snapwell permeable supports (0.4 μm pore size) (Corning Costar, Cambridge, Mass.) coated with 1 μg/cm^2 Vitrogen. Cells were plated at 10^5 cells/cm^2 in KSFM. […]

Entries after “also recorded” stand apart in the source; their conditions may differ. Like-named read-outs stand apart in the source and are kept apart here.

As usually defined, the EC50 is the concentration that produces a half-maximal response. Regarding `CCCCCCCCOC1C(OC(=O)CCC)C(OP(=O)(OCOC(=O)CC)OCOC(=O)CC)C(OP(=O)(OCOC(=O)CC)OCOC(=O)CC)C(OP(=O)(OCOC(=O)CC)OCOC(=O)CC)C1OP(=O)(OCOC(=O)CC)OCOC(=O)CC` (stereo not drawn) [INO-E2, 2-O-butyryl-1-O-octyl-myo-inositol 3,4,5,6-tetrakisphosphate octakis (propionoxymethyl) ester], the “acute effect on Isc” value (2.5 μM, acute) is given as “acute inhibitory effect on Isc”. Further, under “2.5 μM, single addition, after 24 hrs”, the “persistence of acute Isc effect after 24 hrs” value is “dissipated”. The “inhibition of Isc 48 hours after exposure (reversibility)” value (5 μM for 2 hours, tested 48 hours later) is recorded as “negligible inhibition of Isc”. Moreover, the “effect of repeated exposure on basal Isc” value (1-2.5 μM repeatedly over 96 hours (every 24 hrs for 4 days), FIG. 3) is reported as “corrective changes in basal Isc; also recorded: cumulative beneficial effect; also recorded: reverses the pathologically elevated basal Isc”. Further, the “decrease in potency after 24 hr preincubation versus acute addition” value (24 hr preincubation EC50 vs acute EC50) is listed as 50-80%. Further, the “inhibition of spontaneous Isc in Cl- free buffer” value (Cl- free buffer, FIG. 1A) is given as “not reduced”. Further, the half-maximal effective concentration (EC50) was 1 to 2 µM (acute addition, data not shown, read-out: EC50 on Isc following acute addition of compound) and 5 to 10 µM (applied apically 2 hrs, washed, tested 24 hrs later, CFHNE monolayers, read-out: EC50 of prolonged effect on basal amiloride-inhibitable Isc). Under “acute addition, reduced chloride and chloride free buffers, FIG. 1A”, the “acute effect on spontaneous amiloride-inhibitable Isc” value was “inhibits spontaneous amiloride-inhibitable Isc in a dose-dependent fashion”.
